Results from patent US8450305B2, “Macrocyclic compounds useful as inhibitors of kinases and HSP90” (Universite de Strasbourg, priority 2006, dated 2013).

Key:
Assay type in all cases: biochemical
[1] = target: T1, VEGF-R3 (Homo sapiens, UniProt P35916); test: Radiometric protein kinase assay, VEGF-R3; conditions: 1 μM ATP; read-out: Inhibitory activity (IC50:μM) VEGF-R3
T1 construct: host or cells: Sf9 insect cells (baculovirus)
Source text: (§1) All protein kinases were expressed in Sf9 insect cells as human recombinant GST-fusion proteins or His-tagged proteins by means of the baculovirus expression system. Kinases were purified by affinity chromatography using either GSH-agarose (Sigma) or Ni-NTH-agarose (Qiagen). The purity of each kinase was checked by SDS-PAGE/silver staining and the identity of each kinase was verified by western blot analysis with kinase specific antibodies or by mass spectroscopy.
(§2) A radiometric protein kinase assay (^33PanQinase® Activity Assay) was used for measuring the kinase activity of the 24 protein kinases. All kinase assays were performed in 96-well FlashPlates™ from Perkin Elmer (Boston, Mass., USA) in a 50 μl reaction volume. The reaction cocktail was pipetted in 4 steps in the following order: • 20 μl of assay buffer • 5 μl of ATP solution (in H2O) • 5 μl of test compound (in 10% DMSO) • 10 μl of substrate/10 […] of enzyme solution (premixed)
(§3) The assay for all enzymes contained 60 mM HEPES-NaOH, pH 7.5, 3 mM MgCl2, 3 mM MnCl2, 3 μM Na-orthovanadate, 1.2 mM DTT, 50 μg/ml PEG20000, 1 μM [γ-^33P]-ATP (approx. 5×10^05 cpm per well).
(§4) For the 24 kinase assays, the following amounts of enzyme and substrate were used per well:
(§5) The reaction cocktails were incubated at 30° C. for 80 minutes. The reaction was stopped with 50 μl of 2% (v/v) H3PO4, plates were aspirated and washed two times with 200 μl of 0.9% (w/v) NaCl or 200 μl H2O. Incorporation of ^33Pi was determined with a microplate scintillation counter (Microbeta Trilux, Wallac).
(§6) The median value of the counts in column 1 (n=8) of each assay plate was defined as “low control”. This value reflects unspecific binding of radioactivity to the plate in the absence of a protein kinase but in the presence of the substrate. The median value of the counts in column 7 of each assay plate (n=8) was taken as the “high control”, i.e. full activity in the absence of any inhibitor. The difference between high and low control was taken as 100% activity.
(§7) As part of the data evaluation the low control value from a particular plate was subtracted from the high control value as well as from all 80 “compound values” of the corresponding plate. The residual activity (in %) for each well of a particular plate was calculated by using the following formula: Res. Activity (%)=100×[(cpm of compound−low control)/(high control−low control)]
(§8) The residual activities for each concentration and the compound IC50 values were calculated using Quattro Workflow V2.1.0.0 (Quattro Research GmbH, Munich, Germany; www.quattro-research.com). The model used was “Sigmoidal response (variable slope)” with parameters “top” fixed at 100% and “bottom” at 0%.

[2] = target: T2, VEGF-R2 (Homo sapiens, UniProt P35968); test: Radiometric protein kinase assay, VEGF-R2; conditions: 1 μM ATP; read-out: Inhibitory activity (IC50:μM) VEGF-R2
T2 construct: host or cells: Sf9 insect cells (baculovirus)
Source text: as §1, §2, §3, §4, §5, §6, §7, §8

[3] = target: T3, EGF-R (Homo sapiens, UniProt P00533); test: Radiometric protein kinase assay, EGF-R; conditions: 1 μM ATP; read-out: Inhibitory activity (IC50:μM) EGF-R
T3 construct: host or cells: Sf9 insect cells (baculovirus)
Source text: as §1, §2, §3, §4, §5, §6, §7, §8

[4] = target: T4, ERBB2 (Homo sapiens, UniProt P04626); test: Radiometric protein kinase assay, ERBB2; conditions: 1 μM ATP; read-out: Inhibitory activity (IC50:μM) ERBB2
T4 construct: host or cells: Sf9 insect cells (baculovirus)
Source text: as §1
(§9) A radiometric protein kinase assay (^33PanQinase® Activity Assay) was used for measuring the kinase activity of the 24 protein kinases. […]
(§10) The reaction cocktails were incubated at 30° C. for 80 minutes. […] Incorporation of ^33Pi was determined with a microplate scintillation counter (Microbeta Trilux, Wallac).
(§11) The median value of the counts in column 1 (n=8) of each assay plate was defined as “low control”. This value reflects unspecific binding of radioactivity to the plate in the absence of a protein kinase but in the presence of the substrate. […]
(§12) As part of the data evaluation the low control value from a particular plate was subtracted from the high control value as well as from all 80 “compound values” of the corresponding plate. The residual activity (in %) for each well of a particular plate was calculated by using the following formula: Res. Activity (%)=100×[(cpm of compound−low control)/(high control−low control)] […]

[5] = target: T5, INS-R (Homo sapiens, UniProt P06213); test: Radiometric protein kinase assay, INS-R; conditions: 1 μM ATP; read-out: Inhibitory activity (IC50:μM) INS-R
T5 construct: host or cells: Sf9 insect cells (baculovirus)
Source text: as §1, §9, §10, §11, §12

[6] = target: T6, SAK (Homo sapiens, UniProt O00444); test: Radiometric protein kinase assay, SAK; conditions: 1 μM ATP; read-out: Inhibitory activity (IC50:μM) SAK
T6 construct: host or cells: Sf9 insect cells (baculovirus)
T6 sequence (O00444 1-970): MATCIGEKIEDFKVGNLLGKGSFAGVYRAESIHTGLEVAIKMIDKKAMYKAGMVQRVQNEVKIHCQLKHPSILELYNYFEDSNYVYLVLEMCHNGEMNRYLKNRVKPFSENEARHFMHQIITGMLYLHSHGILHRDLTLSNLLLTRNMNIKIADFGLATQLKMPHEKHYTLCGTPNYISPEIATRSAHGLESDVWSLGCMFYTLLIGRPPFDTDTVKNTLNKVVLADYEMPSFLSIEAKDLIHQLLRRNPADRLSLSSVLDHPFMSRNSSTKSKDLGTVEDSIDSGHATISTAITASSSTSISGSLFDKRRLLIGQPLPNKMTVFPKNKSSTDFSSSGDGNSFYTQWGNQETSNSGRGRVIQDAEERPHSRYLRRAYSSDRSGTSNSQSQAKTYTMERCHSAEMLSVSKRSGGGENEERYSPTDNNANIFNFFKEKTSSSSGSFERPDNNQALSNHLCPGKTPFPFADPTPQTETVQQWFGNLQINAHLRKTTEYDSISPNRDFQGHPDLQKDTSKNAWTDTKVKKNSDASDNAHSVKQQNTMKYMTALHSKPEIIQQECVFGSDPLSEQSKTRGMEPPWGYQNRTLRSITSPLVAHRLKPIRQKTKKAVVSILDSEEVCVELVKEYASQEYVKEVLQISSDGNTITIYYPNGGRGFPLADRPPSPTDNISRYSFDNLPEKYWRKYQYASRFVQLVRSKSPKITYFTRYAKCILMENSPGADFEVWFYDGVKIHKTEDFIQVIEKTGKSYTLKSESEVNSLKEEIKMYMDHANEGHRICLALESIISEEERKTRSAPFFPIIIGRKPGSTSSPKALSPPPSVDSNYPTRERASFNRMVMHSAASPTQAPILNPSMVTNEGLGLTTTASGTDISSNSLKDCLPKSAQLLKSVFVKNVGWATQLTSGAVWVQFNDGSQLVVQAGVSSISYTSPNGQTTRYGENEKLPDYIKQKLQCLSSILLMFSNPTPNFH
Source text: as §1, §2, §3, §4, §5, §6, §7, §8

[7] = target: T7, B-RAF-VE (Homo sapiens, UniProt P15056, V600E); test: Radiometric protein kinase assay, B-RAF-VE; conditions: 1 μM ATP; read-out: Inhibitory activity (IC50:μM) B-RAF-VE
T7 construct: host or cells: Sf9 insect cells (baculovirus)
Source text: as §1, §9, §10, §11, §12

T3 sequence (P00533 25-1210): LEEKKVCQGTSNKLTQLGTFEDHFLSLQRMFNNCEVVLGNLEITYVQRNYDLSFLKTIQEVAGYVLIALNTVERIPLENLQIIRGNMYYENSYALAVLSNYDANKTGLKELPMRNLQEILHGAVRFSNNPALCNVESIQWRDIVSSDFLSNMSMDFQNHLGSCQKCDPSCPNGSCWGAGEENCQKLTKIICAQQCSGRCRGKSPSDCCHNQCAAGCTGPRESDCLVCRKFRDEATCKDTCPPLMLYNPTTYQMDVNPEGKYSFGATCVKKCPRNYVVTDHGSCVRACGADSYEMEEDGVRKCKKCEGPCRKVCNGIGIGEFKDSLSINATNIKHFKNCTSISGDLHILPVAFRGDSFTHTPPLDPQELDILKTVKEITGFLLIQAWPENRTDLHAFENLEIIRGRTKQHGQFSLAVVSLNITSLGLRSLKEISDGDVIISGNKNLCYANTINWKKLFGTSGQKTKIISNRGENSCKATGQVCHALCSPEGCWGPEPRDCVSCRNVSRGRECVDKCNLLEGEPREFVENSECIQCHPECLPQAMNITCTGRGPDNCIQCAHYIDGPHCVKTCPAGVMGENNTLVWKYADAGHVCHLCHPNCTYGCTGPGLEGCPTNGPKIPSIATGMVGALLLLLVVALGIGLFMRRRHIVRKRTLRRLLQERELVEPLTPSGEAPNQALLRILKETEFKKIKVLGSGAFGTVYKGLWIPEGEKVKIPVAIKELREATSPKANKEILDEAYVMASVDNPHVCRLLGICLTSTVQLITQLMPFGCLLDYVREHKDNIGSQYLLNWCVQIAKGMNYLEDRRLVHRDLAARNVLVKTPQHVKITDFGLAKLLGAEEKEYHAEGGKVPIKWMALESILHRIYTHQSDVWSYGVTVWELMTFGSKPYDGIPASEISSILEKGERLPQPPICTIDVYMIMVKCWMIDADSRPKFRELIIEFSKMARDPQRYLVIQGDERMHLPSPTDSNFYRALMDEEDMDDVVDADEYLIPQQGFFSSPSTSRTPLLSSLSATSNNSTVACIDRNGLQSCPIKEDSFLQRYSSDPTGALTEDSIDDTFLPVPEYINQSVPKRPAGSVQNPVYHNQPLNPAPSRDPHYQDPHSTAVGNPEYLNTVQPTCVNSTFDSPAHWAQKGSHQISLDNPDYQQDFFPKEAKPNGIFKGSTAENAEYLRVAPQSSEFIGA
T2 sequence (P35968 20-1356): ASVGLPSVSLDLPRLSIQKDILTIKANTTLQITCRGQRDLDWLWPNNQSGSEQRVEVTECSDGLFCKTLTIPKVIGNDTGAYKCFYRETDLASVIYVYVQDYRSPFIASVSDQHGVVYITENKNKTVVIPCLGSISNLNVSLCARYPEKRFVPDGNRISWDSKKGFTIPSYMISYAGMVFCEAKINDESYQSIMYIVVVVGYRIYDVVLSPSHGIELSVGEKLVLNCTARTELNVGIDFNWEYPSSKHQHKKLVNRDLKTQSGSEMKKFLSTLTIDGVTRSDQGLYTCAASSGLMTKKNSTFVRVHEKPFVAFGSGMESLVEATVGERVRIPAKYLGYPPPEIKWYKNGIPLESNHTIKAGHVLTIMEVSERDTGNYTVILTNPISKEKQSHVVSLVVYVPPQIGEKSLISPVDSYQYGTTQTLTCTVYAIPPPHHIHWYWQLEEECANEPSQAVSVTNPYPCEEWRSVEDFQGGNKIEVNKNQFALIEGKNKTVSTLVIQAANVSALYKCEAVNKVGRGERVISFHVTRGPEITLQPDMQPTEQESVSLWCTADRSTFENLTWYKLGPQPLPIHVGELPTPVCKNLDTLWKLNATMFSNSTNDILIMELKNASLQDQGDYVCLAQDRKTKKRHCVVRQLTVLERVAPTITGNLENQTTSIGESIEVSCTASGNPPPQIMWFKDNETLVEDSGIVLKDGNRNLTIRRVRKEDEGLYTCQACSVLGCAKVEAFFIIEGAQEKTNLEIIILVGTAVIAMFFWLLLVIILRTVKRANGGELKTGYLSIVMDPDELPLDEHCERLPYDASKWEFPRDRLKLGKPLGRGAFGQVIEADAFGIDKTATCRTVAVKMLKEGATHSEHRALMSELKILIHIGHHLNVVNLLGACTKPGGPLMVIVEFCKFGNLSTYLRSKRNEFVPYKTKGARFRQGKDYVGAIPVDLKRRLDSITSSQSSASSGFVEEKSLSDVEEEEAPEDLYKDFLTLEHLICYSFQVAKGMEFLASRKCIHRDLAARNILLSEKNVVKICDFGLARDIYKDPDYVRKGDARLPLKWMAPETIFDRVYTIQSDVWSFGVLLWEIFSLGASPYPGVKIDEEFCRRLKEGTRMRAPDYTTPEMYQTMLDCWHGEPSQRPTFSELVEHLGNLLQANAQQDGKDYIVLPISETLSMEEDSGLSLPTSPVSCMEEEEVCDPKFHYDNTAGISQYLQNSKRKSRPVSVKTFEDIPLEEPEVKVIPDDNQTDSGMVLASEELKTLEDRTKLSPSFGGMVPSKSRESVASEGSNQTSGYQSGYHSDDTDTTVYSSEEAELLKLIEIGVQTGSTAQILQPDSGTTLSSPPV
T1 sequence (P35916 25-1363): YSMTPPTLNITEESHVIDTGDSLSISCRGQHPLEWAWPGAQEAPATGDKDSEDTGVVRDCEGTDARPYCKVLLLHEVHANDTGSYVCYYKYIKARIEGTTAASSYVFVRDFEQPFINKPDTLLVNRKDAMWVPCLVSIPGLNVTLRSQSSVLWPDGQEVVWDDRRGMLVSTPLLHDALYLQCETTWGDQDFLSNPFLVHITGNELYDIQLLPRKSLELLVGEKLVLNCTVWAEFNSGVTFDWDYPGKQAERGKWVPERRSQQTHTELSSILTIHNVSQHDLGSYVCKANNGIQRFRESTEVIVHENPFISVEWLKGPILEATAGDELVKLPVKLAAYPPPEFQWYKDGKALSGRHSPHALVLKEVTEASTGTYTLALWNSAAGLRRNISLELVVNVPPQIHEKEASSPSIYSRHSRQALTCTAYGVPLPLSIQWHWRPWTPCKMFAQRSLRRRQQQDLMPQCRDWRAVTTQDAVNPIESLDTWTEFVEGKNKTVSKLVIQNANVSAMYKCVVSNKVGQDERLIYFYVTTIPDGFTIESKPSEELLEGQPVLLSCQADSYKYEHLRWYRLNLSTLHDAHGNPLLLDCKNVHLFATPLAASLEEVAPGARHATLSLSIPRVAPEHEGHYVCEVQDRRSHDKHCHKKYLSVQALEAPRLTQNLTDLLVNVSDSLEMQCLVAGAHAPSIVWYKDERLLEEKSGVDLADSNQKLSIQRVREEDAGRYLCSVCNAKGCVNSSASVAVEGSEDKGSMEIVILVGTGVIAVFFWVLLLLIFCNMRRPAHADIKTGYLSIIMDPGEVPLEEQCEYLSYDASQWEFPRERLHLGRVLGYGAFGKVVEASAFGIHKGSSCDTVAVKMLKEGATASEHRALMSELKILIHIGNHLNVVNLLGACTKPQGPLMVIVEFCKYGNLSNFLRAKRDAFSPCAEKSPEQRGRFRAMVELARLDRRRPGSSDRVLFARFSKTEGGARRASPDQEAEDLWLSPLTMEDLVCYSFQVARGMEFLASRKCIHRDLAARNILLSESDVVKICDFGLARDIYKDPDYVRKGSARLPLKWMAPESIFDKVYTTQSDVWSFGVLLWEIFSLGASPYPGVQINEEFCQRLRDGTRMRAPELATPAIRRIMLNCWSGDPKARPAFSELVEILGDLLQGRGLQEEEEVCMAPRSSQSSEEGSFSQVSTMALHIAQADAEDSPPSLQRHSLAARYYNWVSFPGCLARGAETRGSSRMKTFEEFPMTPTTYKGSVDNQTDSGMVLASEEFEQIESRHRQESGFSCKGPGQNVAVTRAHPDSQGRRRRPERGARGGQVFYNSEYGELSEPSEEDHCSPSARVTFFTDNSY
T5 sequence (P06213 980-1382 limits assumed): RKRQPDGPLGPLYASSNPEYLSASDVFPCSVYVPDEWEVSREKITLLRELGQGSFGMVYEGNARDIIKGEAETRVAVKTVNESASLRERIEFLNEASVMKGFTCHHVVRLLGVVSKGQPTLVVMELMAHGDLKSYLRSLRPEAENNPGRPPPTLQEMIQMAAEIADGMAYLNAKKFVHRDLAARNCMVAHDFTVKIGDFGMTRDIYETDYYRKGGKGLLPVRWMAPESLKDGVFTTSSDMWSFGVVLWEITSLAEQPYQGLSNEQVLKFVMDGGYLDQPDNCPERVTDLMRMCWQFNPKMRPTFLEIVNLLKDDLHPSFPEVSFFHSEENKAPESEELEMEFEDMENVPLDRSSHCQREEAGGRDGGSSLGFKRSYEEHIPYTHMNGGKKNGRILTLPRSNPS
T7 sequence (P15056 whole entry V600E): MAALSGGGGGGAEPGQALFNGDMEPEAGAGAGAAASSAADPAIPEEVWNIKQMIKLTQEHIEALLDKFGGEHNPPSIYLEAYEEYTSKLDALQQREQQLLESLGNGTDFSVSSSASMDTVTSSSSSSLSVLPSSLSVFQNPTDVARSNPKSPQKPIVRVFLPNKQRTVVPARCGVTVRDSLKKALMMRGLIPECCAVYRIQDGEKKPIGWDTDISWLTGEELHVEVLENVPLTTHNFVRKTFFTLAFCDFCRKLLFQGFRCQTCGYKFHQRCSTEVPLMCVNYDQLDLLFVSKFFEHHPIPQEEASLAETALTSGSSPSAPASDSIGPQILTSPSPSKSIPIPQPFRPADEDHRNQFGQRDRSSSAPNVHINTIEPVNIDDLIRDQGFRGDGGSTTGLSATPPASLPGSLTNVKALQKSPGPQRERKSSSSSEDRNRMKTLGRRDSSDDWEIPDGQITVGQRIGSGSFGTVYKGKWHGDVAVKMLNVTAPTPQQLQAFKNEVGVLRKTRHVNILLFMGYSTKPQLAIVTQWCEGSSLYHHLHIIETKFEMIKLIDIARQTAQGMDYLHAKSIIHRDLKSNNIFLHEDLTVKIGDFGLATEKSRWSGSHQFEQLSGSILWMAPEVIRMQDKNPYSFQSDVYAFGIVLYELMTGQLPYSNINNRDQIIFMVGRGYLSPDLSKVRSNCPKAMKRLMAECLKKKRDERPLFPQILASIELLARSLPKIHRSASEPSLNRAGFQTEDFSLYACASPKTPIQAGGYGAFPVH

Structure (SMILES)	IC50 [1] [µM]	IC50 [2] [µM]	IC50 [3] [µM]	IC50 [4] [µM]	IC50 [5] [µM]	IC50 [6] [µM]	IC50 [7] [µM]
COC1CC/C=C/C[C@H](c2ccccc2)OC(=O)c2c(O)cc(O)c(Cl)c2CC(=O)C1 (stereo partly shown) [A-2]	40	19	10	16	36	17	–
O=C1Cc2c(Cl)c(O)cc(O)c2C(=O)O[C@H](c2ccccc2)C/C=C/CCC(Cl)C1 (stereo partly shown) [A-3]	19	20	14	24	44	25	–
CC(C)[C@@H]1CC2OC2CC/C=C/C(=O)Cc2c(Cl)c(O)cc(O)c2C(=O)O1 (stereo partly shown) [A-4]	31	30	22	–	–	19	–
O=C1/C=C/CCC2OC2C[C@H](c2ccccc2)OC(=O)c2c(O)cc(O)c(Cl)c2C1 (stereo partly shown) [A-5]	31	19	16	–	–	20	50
O=C1/C=C/CCC2OC2C[C@@H](Cc2ccccc2)OC(=O)c2c(O)cc(O)cc2C1 (stereo partly shown) [A-6]	34	25	32	–	–	17	–
